Target: Hypoxia inducible factors; HIF-1-alpha, HIF-2-alpha (Homo sapiens, UniProt Q16665+Q99814)
Assay: Inhibition of hypoxia-induced HIF1 transcriptional activity in human HeLa cells measured after 12 hrs by luciferase reporter gene assay
Type: cell-based

IC50 [µM] | Compound
3.7 | OCc1ccc(-c2nc(-c3ccccc3)c3ccccn23)s1
6.5 | OCc1ccc(-c2nc(-c3ccccc3CO)c3ccccn23)o1
9.4 | OCc1ccc(-c2nc(-c3ccccc3CO)c3ccccn23)s1
7.4 | N#Cc1ccc(-c2nc(-c3ccc(CO)o3)n3ccccc23)cc1

The remaining lines, values behind:

Compound | IC50 [µM]
OCc1ccc(-c2nc(-c3ccncc3)c3ccccn23)s1 | 9.1
COc1ccccc1-c1nc(-c2ccc(CO)o2)n2ccccc12 | 75
OCc1ccc(-c2nc(-c3ccc(C(F)(F)F)cc3)c3ccccn23)o1 | 17
COc1ccc(-c2nc(-c3ccc(CO)o3)n3ccccc23)cc1 | 61
OCc1ccc(-c2nc(Cc3ccccc3)c3ccccn23)o1 | 56
OCc1ccc(-c2nc(-c3ccccc3)c3ccccn23)o1 | 70
OCc1ccc(-c2nc(-c3cc(C(F)(F)F)cc(C(F)(F)F)c3)c3ccccn23)o1 | 25
Cc1ccc(-c2nc(-c3ccc(CO)o3)n3ccccc23)cc1 | 39
